By IC50 is commonly meant the point on the concentration scale where inhibition reaches its midpoint.

This note sets out measurements from ChEMBL document CHEMBL2177000, “Pharmacokinetic optimization of class-selective histone deacetylase inhibitors and identification of associated candidate predictive biomarkers of hepatocellular carcinoma tumor response” (J Med Chem, 2012).

Each structure is given as a SMILES string.

One experiment has as its target Cytochrome P450 2C19 (Homo sapiens, UniProt P33261). Kind of experiment: Inhibition of CYP2C19 in human liver microsomes in presence of NADPH by LC-MS/MS method. It is filed as ADME, Microsome.
For a further experiment, the target named is Histone deacetylase 1 (Homo sapiens, UniProt Q13547). Put plainly: Inhibition of HDAC1 using p53 (379 to 382 residues) based fluorogenic peptide substrate.
Chain of Histone deacetylase 1 (Q13547 whole entry, the tested form may be a part): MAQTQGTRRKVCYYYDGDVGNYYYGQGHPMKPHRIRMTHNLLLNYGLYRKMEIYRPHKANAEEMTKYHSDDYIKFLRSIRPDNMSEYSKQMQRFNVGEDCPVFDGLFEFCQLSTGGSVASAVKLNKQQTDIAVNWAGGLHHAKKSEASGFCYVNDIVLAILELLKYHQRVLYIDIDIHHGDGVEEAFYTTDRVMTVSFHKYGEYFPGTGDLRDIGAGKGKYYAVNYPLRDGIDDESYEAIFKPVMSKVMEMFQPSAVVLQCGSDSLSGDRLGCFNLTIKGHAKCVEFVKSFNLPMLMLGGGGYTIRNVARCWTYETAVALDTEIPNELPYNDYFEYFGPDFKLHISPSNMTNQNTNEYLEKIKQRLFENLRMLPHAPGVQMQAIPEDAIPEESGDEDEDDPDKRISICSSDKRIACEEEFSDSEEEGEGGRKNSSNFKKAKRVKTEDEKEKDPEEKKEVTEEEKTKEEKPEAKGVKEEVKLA
The target in experiment [1] is T1, Protein deacetylase HDAC6 (Homo sapiens, UniProt Q9UBN7).
T1 sequence (Q9UBN7 whole entry): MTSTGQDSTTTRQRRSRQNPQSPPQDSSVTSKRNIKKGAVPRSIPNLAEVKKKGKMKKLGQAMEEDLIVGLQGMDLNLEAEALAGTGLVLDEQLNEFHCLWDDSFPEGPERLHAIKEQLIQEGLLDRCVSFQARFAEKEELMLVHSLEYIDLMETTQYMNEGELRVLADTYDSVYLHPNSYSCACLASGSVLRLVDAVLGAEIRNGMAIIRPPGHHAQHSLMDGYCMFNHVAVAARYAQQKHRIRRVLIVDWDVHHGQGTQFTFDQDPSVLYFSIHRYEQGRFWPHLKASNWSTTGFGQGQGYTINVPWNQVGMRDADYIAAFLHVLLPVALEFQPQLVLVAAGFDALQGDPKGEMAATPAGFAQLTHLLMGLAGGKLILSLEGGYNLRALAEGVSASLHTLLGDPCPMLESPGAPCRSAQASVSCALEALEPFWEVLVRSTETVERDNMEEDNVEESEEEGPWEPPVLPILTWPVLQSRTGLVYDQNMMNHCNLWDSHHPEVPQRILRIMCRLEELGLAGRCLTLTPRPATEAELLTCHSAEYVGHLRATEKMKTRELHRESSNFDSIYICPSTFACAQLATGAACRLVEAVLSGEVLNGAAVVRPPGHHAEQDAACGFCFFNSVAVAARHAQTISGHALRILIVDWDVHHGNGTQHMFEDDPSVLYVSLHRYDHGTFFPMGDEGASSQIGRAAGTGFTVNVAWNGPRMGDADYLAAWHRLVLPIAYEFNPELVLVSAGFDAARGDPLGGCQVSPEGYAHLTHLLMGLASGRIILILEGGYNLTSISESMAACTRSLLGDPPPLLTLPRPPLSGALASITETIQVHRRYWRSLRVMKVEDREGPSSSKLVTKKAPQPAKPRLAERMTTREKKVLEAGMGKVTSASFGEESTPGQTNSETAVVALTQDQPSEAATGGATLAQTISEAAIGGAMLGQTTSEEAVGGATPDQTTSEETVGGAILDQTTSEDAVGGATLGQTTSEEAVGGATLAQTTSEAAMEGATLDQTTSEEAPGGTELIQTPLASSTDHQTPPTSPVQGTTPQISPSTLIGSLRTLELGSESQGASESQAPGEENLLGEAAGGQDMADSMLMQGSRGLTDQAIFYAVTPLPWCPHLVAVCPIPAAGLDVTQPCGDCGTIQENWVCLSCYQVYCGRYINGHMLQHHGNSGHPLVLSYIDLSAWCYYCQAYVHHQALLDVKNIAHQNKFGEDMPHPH
Put plainly: Inhibition of HDAC6 using p53 (379 to 382 residues) based fluorogenic peptide substrate.

The next experiment has as its target T2, Histone deacetylase 7 (Homo sapiens, UniProt Q8WUI4).
T2 sequence (Q8WUI4 whole entry): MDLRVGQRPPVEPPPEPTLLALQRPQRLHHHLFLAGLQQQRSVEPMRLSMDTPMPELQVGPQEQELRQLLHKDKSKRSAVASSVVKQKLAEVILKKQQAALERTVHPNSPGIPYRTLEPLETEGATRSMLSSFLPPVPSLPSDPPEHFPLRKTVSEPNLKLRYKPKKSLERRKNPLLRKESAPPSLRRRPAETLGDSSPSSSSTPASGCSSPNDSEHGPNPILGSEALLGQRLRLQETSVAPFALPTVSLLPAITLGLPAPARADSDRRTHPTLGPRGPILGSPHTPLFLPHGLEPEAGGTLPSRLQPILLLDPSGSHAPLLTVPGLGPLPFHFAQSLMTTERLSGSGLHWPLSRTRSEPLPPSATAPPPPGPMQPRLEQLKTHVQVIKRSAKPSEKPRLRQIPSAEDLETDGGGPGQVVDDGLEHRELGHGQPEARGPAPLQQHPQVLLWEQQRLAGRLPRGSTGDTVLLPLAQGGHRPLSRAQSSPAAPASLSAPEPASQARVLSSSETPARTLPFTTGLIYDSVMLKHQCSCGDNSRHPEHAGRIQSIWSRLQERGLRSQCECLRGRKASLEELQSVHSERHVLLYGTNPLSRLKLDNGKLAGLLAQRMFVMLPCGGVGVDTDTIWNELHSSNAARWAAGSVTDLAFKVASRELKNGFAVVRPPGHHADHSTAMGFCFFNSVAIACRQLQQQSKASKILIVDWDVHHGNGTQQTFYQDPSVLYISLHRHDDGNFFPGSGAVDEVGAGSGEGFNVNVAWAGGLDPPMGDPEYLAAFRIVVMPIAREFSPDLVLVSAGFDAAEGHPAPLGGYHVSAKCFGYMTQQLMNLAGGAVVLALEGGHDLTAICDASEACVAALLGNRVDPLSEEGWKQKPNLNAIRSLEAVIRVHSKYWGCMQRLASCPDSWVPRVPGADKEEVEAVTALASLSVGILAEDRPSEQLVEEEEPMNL
Put plainly: Inhibition of HDAC7 using p53 (379 to 382 residues) based fluorogenic peptide substrate.

In the next experiment the target is T3, Histone deacetylase 8 (Homo sapiens, UniProt Q9BY41).
T3 sequence (Q9BY41 whole entry): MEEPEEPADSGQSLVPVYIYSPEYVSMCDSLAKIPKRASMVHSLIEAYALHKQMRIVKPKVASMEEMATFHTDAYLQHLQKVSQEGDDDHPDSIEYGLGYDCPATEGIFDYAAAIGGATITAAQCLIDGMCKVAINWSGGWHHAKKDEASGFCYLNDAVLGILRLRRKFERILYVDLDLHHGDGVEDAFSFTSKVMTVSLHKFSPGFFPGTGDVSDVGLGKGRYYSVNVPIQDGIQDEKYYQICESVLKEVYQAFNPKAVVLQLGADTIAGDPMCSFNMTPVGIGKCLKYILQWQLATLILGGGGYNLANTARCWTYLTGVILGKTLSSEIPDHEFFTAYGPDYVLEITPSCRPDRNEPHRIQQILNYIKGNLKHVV
Put plainly: Inhibition of HDAC8 using p53 (379 to 382 residues) based fluorogenic peptide substrate.

The target in the next experiment is Cytochrome P450 3A4 (Homo sapiens, UniProt P08684). Put plainly: Inhibition of CYP3A4 in human liver microsomes in presence of NADPH by LC-MS/MS method. It is filed as ADME, Microsome. For orientation: Microsomes from liver hold many membrane-bound enzymes, among them those of drug oxidation.
Chain of Cytochrome P450 3A4 (P08684 whole entry, the tested form may be a part): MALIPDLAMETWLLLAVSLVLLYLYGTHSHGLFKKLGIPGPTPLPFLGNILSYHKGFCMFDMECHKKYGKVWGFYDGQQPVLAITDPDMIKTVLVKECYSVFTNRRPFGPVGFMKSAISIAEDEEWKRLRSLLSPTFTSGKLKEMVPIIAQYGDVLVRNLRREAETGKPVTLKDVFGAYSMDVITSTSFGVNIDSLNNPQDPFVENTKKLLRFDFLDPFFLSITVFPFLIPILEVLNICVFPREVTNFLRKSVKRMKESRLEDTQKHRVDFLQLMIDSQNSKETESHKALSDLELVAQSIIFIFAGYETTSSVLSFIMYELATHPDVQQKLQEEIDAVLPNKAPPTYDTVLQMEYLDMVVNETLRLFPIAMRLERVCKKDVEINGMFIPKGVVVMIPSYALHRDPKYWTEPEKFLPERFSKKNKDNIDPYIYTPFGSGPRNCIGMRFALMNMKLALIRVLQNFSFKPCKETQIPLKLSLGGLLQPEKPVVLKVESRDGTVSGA
A further experiment addresses Histone deacetylase 3 (Homo sapiens, UniProt O15379). Kind of experiment: Inhibition of HDAC3 using p53 (379 to 382 residues) based fluorogenic peptide substrate.

Chain of Histone deacetylase 3 (O15379 whole entry, the tested form may be a part): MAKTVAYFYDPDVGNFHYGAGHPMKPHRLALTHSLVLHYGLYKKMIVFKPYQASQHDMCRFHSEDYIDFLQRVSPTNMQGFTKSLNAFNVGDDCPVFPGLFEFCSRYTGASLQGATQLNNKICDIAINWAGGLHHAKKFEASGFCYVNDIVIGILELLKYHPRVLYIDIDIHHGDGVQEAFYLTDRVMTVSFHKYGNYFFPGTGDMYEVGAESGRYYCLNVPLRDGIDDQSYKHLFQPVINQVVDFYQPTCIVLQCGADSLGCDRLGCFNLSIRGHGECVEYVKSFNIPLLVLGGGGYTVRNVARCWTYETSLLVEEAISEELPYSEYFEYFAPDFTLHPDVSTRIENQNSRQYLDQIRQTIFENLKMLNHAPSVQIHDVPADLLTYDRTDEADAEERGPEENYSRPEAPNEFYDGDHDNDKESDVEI
Chain of Cytochrome P450 2C19 (P33261 whole entry, the tested form may be a part): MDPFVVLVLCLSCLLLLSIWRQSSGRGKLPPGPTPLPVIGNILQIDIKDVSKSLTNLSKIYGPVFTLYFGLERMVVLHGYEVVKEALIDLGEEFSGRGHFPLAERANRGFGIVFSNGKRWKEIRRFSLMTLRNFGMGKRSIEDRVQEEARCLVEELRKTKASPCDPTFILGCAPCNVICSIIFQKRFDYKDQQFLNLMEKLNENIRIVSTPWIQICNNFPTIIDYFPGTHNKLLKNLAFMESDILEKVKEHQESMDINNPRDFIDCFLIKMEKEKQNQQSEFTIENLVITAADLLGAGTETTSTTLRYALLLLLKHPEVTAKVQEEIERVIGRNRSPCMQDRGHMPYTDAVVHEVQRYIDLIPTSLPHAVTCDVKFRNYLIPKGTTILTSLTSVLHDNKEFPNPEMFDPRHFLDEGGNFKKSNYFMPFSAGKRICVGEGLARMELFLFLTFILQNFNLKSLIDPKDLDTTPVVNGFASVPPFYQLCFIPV

Regarding `CN1C[C@H](C(=O)Nc2ccc(Cl)cc2)[C@@H](c2ccc(/C=C/C(=O)Nc3ccccc3N)cc2F)C1` (racemic), the half-inhibitory concentration (IC50) on Cytochrome P450 2C19 is 21 µM; at Histone deacetylase 1, 0.1 µM; in experiment [1], more than 30 µM; on Histone deacetylase 7, more than 30 µM; on Histone deacetylase 8, more than 30 µM; on Cytochrome P450 3A4 it was 4 µM. Besides, the IC50 at Histone deacetylase 3 was found to be 0.23 µM.
Regarding `CN1C[C@@H](C(=O)Nc2ccc(Cl)cc2)[C@H](c2ccc(/C=C/C(=O)Nc3ccccc3N)cc2)C1`, the IC50 at Cytochrome P450 2C19 was 43 µM; against Histone deacetylase 1, 0.14 µM; in experiment [1], more than 30 µM; at Histone deacetylase 7, more than 30 µM; against Histone deacetylase 8, more than 30 µM; on Cytochrome P450 3A4 it was 21 µM. In addition, the IC50 on Histone deacetylase 3 amounted to 0.2 µM.
Regarding `CN1C[C@H](C(=O)Nc2ccc(Cl)cc2)[C@@H](c2ccc(/C=C/C(=O)Nc3ccccc3N)cc2)C1`, the IC50 on Cytochrome P450 2C19 was 43 µM; on Histone deacetylase 1, 0.06 µM; in experiment [1], more than 30 µM; on Histone deacetylase 7, more than 30 µM; on Histone deacetylase 8, more than 30 µM; on Cytochrome P450 3A4 it was 14 µM. Also, at Histone deacetylase 3, the IC50 turned out to be 0.23 µM.
